Assay results from patent publication US20200010482A1, “INHIBITORS OF BETA SECRETASE” (Janssen Pharmaceutica NV, priority 2017, published 2020).

Tests used:
[1] = system: Abeta 1-42 produced and secreted by SKNBE2 cells expressing hAPP695; assay: Cellular αLisa assay in SKNBE2 cells, Abeta 1-42; type: cell-based, human; details: SKNBE2 cells expressing hAPP695, 18 hours incubation; for IC50: Homo sapiens, SKNBE2, 18 h, read-out: CELLULAR αLISA ASSAY IN SKNBE2 CELLS ABETA 42 PIC50 (converted)
Procedure, shortened: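 Human neuroblastoma SKNBE2 cells expressing wild-type hAPP695 treated with compound for 18 h; secreted Abeta total or Abeta 1-42 in medium measured by sandwich αLisa (AbN/25 with Ab4G8 or cAb42/26), read after 1 h. IC50 from least-squares fit of % Controlmin, normalised to untreated and no-antibody controls.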

[2] = target: T1, BACE1 (Homo sapiens, UniProt P56817); assay: BACE1 biochemical FRET based assay; details: recombinant BACE1 0.04 μg/ml, 20 μM substrate, 450 min, pH 5.0; for IC50: read-out: BIOCHEMICAL FRET BASED ASSAY pIC50 (converted)
T1 construct: recombinant BACE1 protein in a final concentration of 0.04 μg/ml
Procedure, shortened: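 Recombinant BACE1 (0.04 μg/ml final) incubated 450 min at room temperature with 20 μM Mca/Dnp-labelled 13-mer Swedish APP peptide in 50 mM citrate pH 5.0, 0.05% PEG. Fluorescence (ex 320/em 405 nm) at 450 min minus early baseline Tx; IC50 fitted from % Controlmin versus concentration.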

[3] = target: T2, BACE2 (Homo sapiens, UniProt Q9Y5Z0); assay: BACE2 biochemical FRET based assay; details: recombinant BACE2 0.4 μg/ml, 10 μM substrate, 450 min, pH 5.0; for IC50: read-out: BIOCHEMICAL FRET BASED ASSAY pIC50 (converted)
T2 construct: recombinant BACE2 protein in a final concentration of 0.4 μg/ml
T2 sequence (Q9Y5Z0 63-518): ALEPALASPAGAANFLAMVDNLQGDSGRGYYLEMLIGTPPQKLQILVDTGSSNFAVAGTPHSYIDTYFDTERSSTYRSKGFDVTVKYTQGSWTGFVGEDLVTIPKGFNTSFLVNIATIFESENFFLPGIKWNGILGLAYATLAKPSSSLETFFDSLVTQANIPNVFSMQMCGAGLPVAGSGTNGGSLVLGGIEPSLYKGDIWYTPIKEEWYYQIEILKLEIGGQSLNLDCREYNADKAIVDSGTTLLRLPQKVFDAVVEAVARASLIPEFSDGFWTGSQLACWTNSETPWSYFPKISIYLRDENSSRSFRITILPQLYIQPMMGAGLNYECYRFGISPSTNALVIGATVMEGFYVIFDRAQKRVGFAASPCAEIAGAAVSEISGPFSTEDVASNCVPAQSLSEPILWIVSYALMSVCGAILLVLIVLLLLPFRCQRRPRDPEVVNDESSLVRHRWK
Procedure, shortened: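 Recombinant enzyme (0.4 μg/ml final) incubated 450 min at room temperature with 10 μM Mca/Dnp-quenched Swedish-mutant APP peptide in 50 mM citrate pH 5.0, 0.05% PEG, no DMSO. Fluorescence (ex 320/em 405 nm) change from T0 to T450 normalised to no-enzyme and enzyme controls; IC50 from least-squares curve fit.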

T1 sequence (P56817 46-501): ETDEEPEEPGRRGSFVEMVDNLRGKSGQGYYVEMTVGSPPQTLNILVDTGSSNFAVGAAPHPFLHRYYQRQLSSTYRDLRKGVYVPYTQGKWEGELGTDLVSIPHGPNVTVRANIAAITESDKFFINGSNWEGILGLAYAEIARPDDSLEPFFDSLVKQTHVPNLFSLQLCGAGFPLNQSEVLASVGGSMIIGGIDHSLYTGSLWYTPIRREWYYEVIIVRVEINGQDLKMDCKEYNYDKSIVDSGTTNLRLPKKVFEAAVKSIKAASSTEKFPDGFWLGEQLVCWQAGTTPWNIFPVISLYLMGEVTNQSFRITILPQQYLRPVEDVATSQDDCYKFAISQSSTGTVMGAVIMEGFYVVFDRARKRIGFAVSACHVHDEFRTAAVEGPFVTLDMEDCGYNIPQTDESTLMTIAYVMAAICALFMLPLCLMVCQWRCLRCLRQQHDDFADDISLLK

| Structure (SMILES) | IC50 [1] [nM] | IC50 [2] [nM] | IC50 [3] [nM] | BIOCHEMICAL FRET BASED ASSAY pIC50 [2] | BIOCHEMICAL FRET BASED ASSAY pIC50 [3] | CELLULAR αLISA ASSAY IN SKNBE2 CELLS ABETA 42 PIC50 [1] |
| --- | --- | --- | --- | --- | --- | --- |
| COC/C=C/c1cnc(OC)c2c1C[C@H]1CSC(N)=N[C@@]1(c1ccc(F)cc1F)C2 [Compound 47] | 5.62 | 10.2 | 6.61 |  |  |  |
| COc1ncc(-c2ccccc2C)c2c1C[C@]1(c3ccc(F)cc3F)N=C(N)SC[C@@H]1C2 [Compound 55] |  |  |  | 8.45 | 7.4 | 7.99 |
| COc1cc(C)c(-c2cnc(OC)c3c2C[C@H]2CSC(N)=N[C@@]2(c2ccc(F)cc2F)C3)cn1 [Compound 106] | 5.89 | 8.71 | 195 |  |  |  |

Continued, in another order:

| IC50 [1] [nM] | IC50 [2] [nM] | IC50 [3] [nM] | BIOCHEMICAL FRET BASED ASSAY pIC50 [2] | BIOCHEMICAL FRET BASED ASSAY pIC50 [3] | Structure (SMILES) | CELLULAR αLISA ASSAY IN SKNBE2 CELLS ABETA 42 PIC50 [1] |
| --- | --- | --- | --- | --- | --- | --- |
| 41.7 | 178 | 240 |  |  | COc1ncc(C#N)c2c1C[C@]1(c3ccccc3F)N=C(N)SC[C@@H]1C2 (racemic) [Compound 22] |  |
|  |  |  | 8.81 | 8.43 | COc1ncc(-c2ccccc2)c2c1C[C@]1(c3ccc(F)cc3F)N=C(N)SC[C@@H]1C2 [Compound 49] | 8.56 |
|  |  |  | 8.26 | 6.9 | COc1ncc(-c2cc(Cl)ccc2C)c2c1C[C@]1(c3ccc(F)cc3F)N=C(N)SC[C@@H]1C2 [Compound 60] | 7.25 |
